Laboratory results from ChEMBL document CHEMBL3232945 (Eur J Med Chem, 2014).

How the values were obtained:
[1] = test system: Rattus norvegicus; assay: Toxicity in anaesthetized-Wistar rat assessed as P-Q ECG interval at 40 mg/kg, ip after 15 mins (reference value: 52.2 +/- 1.158 ms); type: organism-based; set-up: dose 40 mg/kg, route intraperitoneal; details: in vivo, 0.25 h
[2] = test system: Rattus norvegicus; assay: Antiarrhythmic activity in barium chloride-induced Wistar rat assessed as increase in mortality time at 40 mg/kg, ip administered 60 mins before barium chloride challenge (reference value: 682.8 +/- 9.656 secs); type: functional, Heart; details: route intraperitoneal
[3] = test system: Rattus norvegicus; assay: Toxicity in anaesthetized-Wistar rat assessed as Q-T ECG interval at 40 mg/kg, ip after 30 mins (reference value: 78.3 +/- 0.860 ms); type: organism-based; set-up: dose 40 mg/kg, route intraperitoneal; details: in vivo, 0.5 h
[4] = test system: Rattus norvegicus; assay: Antihypertensive activity in Wistar rat assessed as mean arterial pressure at 40 mg/kg, ip after 45 mins (reference value: 193.96 +/- 0.865 mmHg); type: functional, Artery; details: route intraperitoneal
[5] = test system: Rattus norvegicus; assay: Toxicity in anaesthetized-Wistar rat assessed as Q-T ECG interval at 40 mg/kg, ip after 60 mins (reference value: 79.7 +/- 0.965 ms); type: organism-based; set-up: dose 40 mg/kg, route intraperitoneal; details: in vivo, 1 h
[6] = test system: Rattus norvegicus; assay: Toxicity in anaesthetized-Wistar rat assessed as P-Q ECG interval at 40 mg/kg, ip after 30 mins (reference value: […] +/- 0.927 ms); type: organism-based; set-up: dose 40 mg/kg, route intraperitoneal; details: in vivo, 0.5 h
[7] = test system: Rattus norvegicus; assay: Toxicity in […] normotensive Wistar rat assessed as mean arterial pressure at 40 mg/kg, ip measured immediately at 0 min (reference value: 94.21 +/- 2.065 mmHg); type: organism-based, Artery; set-up: dose 40 mg/kg, route intraperitoneal; details: in vivo, 0 h
[8] = test system: Rattus norvegicus; assay: Toxicity in […] normotensive Wistar rat assessed as mean arterial pressure at 40 mg/kg, ip after 30 mins (reference value: 94.68 +/- 1.213 mmHg); type: organism-based, Artery; set-up: dose 40 mg/kg, route intraperitoneal; details: in vivo, 0.5 h
[9] = test system: Rattus norvegicus; assay: Toxicity in anesthetized-normotensive Wistar rat assessed as heart rate at 40 mg/kg, ip after 30 mins (reference value: 317.68 +/- 7.631 bpm); type: organism-based; set-up: dose 40 mg/kg, route intraperitoneal; details: in vivo, 0.5 h
[10] = test system: Rattus norvegicus; assay: Antihypertensive activity in Wistar rat assessed as mean arterial pressure at 40 mg/kg, ip after 60 mins (reference value: 195.11 +/- 0.531 mmHg); type: functional, Artery; details: route intraperitoneal
[11] = test system: Rattus norvegicus; assay: Antihypertensive activity in Wistar rat assessed as mean arterial pressure at 40 mg/kg, ip after 30 mins (reference value: 194.72 +/- 1.002 mmHg); type: functional, Artery; details: route intraperitoneal
[12] = test system: Rattus norvegicus; assay: Toxicity in anaesthetized-Wistar rat assessed as QRS ECG interval at 40 mg/kg, ip after 45 mins (reference value: 20.2 +/- 1.348 ms); type: organism-based; set-up: dose 40 mg/kg, route intraperitoneal; details: in vivo, 0.75 h
[13] = test system: Rattus norvegicus; assay: Toxicity in anesthetized-normotensive Wistar rat assessed as heart rate at 40 mg/kg, ip after 15 mins (reference value: 313.93 +/- 9.912 bpm); type: organism-based; set-up: dose 40 mg/kg, route intraperitoneal; details: in vivo, 0.25 h
[14] = test system: Rattus norvegicus; assay: Toxicity in […] normotensive Wistar rat assessed as mean arterial pressure at 40 mg/kg, ip after 45 mins (reference value: 94.83 +/- 0.943 mmHg); type: organism-based, Artery; set-up: dose 40 mg/kg, route intraperitoneal; details: in vivo, 0.75 h
[15] = test system: Rattus norvegicus; assay: Toxicity in anaesthetized-Wistar rat assessed as QRS ECG interval at 40 mg/kg, ip measured immediately at 0 min (reference value: 19.6 +/- 1.142 ms); type: organism-based; set-up: dose 40 mg/kg, route intraperitoneal; details: in vivo, 0 h
[16] = test system: Rattus norvegicus; assay: Toxicity in anaesthetized-Wistar rat assessed as QRS ECG interval at 40 mg/kg, ip after 60 mins (reference value: 19.3 +/- 0.873 ms); type: organism-based; set-up: dose 40 mg/kg, route intraperitoneal; details: in vivo, 1 h
[17] = test system: Rattus norvegicus; assay: Toxicity in […] normotensive Wistar rat assessed as mean arterial pressure at 40 mg/kg, ip after 15 mins (reference value: 93.81 +/- 1.543 mmHg); type: organism-based, Artery; set-up: dose 40 mg/kg, route intraperitoneal; details: in vivo, 0.25 h
[18] = test system: Rattus norvegicus; assay: Toxicity in anaesthetized-Wistar rat assessed as P-Q ECG interval at 40 mg/kg, ip measured immediately at 0 min (reference value: 52.4 +/- 0.927 ms); type: organism-based; set-up: dose 40 mg/kg, route intraperitoneal; details: in vivo, 0 h
[19] = test system: Rattus norvegicus; assay: Toxicity in anaesthetized-Wistar rat assessed as Q-T ECG interval at 40 mg/kg, ip after 15 mins (reference value: 79.4 +/- 1.270 ms); type: organism-based; set-up: dose 40 mg/kg, route intraperitoneal; details: in vivo, 0.25 h
[20] = test system: Rattus norvegicus; assay: Toxicity in anaesthetized-Wistar rat assessed as Q-T ECG interval at 40 mg/kg, ip measured immediately at 0 min (reference value: 78.8 +/- 1.030 ms); type: organism-based; set-up: dose 40 mg/kg, route intraperitoneal; details: in vivo, 0 h
[21] = test system: Rattus norvegicus; assay: Toxicity in anesthetized-normotensive Wistar rat assessed as heart rate at 40 mg/kg, ip after 45 mins (reference value: 316.82 +/- 8.452 bpm); type: organism-based; set-up: dose 40 mg/kg, route intraperitoneal; details: in vivo, 0.75 h
[22] = test system: Rattus norvegicus; assay: Toxicity in anesthetized-normotensive Wistar rat assessed as heart rate at 40 mg/kg, ip after 60 mins (reference value: 314.96 +/- 9.442 bpm); type: organism-based; set-up: dose 40 mg/kg, route intraperitoneal; details: in vivo, 1 h
[23] = test system: Rattus norvegicus; assay: Toxicity in […] normotensive Wistar rat assessed as mean arterial pressure at 40 mg/kg, ip after 60 mins (reference value: 95.07 +/- 1.973 mmHg); type: organism-based, Artery; set-up: dose 40 mg/kg, route intraperitoneal; details: in vivo, 1 h
[24] = test system: Rattus norvegicus; assay: Toxicity in anaesthetized-Wistar rat assessed as P-Q ECG interval at 40 mg/kg, ip after 45 mins (reference value: 52.5 +/- 0.780 ms); type: organism-based; set-up: dose 40 mg/kg, route intraperitoneal; details: in vivo, 0.75 h
[25] = test system: Rattus norvegicus; assay: Toxicity in anesthetized-normotensive Wistar rat assessed as heart rate at 40 mg/kg, ip measured immediately at 0 min (reference value: 316.62 +/- 9.643 bpm); type: organism-based; set-up: dose 40 mg/kg, route intraperitoneal; details: in vivo, 0 h
[26] = test system: Rattus norvegicus; assay: Toxicity in anaesthetized-Wistar rat assessed as QRS ECG interval at 40 mg/kg, ip after 15 mins (reference value: 18.9 +/- 1.563 ms); type: organism-based; set-up: dose 40 mg/kg, route intraperitoneal; details: in vivo, 0.25 h
[27] = test system: Rattus norvegicus; assay: Antihypertensive activity in Wistar rat assessed as mean arterial pressure at 40 mg/kg, ip measured immediately at 0 min (reference value: 194.08 +/- 1.962 mmHg); type: functional, Artery; details: route intraperitoneal
[28] = test system: Rattus norvegicus; assay: Antiarrhythmic activity in barium chloride-induced Wistar rat assessed as increase in appearance time of arrhythmia at 40 mg/kg, ip administered 60 mins before barium chloride challenge (reference value: 129.4 +/- 4.373 sec); type: functional, Heart; details: route intraperitoneal
[29] = test system: Rattus norvegicus; assay: Toxicity in anaesthetized-Wistar rat assessed as QRS ECG interval at 40 mg/kg, ip after 30 mins (reference value: 19.9 +/- 1.393 ms); type: organism-based; set-up: dose 40 mg/kg, route intraperitoneal; details: in vivo, 0.5 h
[30] = test system: Rattus norvegicus; assay: Toxicity in anaesthetized-Wistar rat assessed as P-Q ECG interval at 40 mg/kg, ip after 60 mins (reference value: […] +/- 0.924 ms); type: organism-based; set-up: dose 40 mg/kg, route intraperitoneal; details: in vivo, 1 h
[31] = test system: Rattus norvegicus; assay: Antihypertensive activity in Wistar rat assessed as mean arterial pressure at 40 mg/kg, ip after 15 mins (reference value: 195.68 +/- 1.623 mmHg); type: functional, Artery; details: route intraperitoneal

SMILES	Activity [1] [min]	Time [2] [s]	Activity [3] [min]	Activity [4] [mmHg]	Activity [5] [ms]	Activity [6] [min]	Activity [7] [mmHg]	Activity [8] [mmHg]	Activity [9] [bpm]	Activity [10] [mmHg]	Activity [11] [mmHg]	Activity [12] [min]	Activity [13] [bpm]	Activity [14] [mmHg]	Activity [15] [min]	Activity [16] [min]	Activity [17] [mmHg]	Activity [18] [ms]	Activity [19] [min]	Activity [20] [min]	other results
CCCCN(CCCC)CC(O)CN1C(=O)/C(=C\c2ccccc2)S/C1=N\c1ccccc1 (stereo not drawn)	55	786.2	68.9	163.37	66.4	56.1	95.56	77.87	276.46	182.09	159.69	22.4	297.25	80.16	20.4	22.6	84.43	53.5	67.9	67	Activity [21]: 283.5 bpm; Activity [22]: 301.69 bpm; Activity [23]: 90.59 mmHg; Activity [24]: 57.3 min; Activity [25]: 309.12 bpm; Activity [26]: 21.6 min; Activity [27]: 195.08 mmHg; Time [28]: 265.4 s; Activity [29]: 22 ms; Activity [30]: 54.3 min; Activity [31]: 171.43 mmHg
O=C1/C(=C\c2ccccc2)S/C(=N\c2ccccc2)N1CC(O)CN1CCOCC1 (stereo not drawn)	50.2	1089.8	73.2	131.61	74.2	50.9	92.99	73.87	293.54	154.93	168.61	23.1	304.65	62.69	23.4	23.7	82.61	49.9	74.9	74.3	Activity [21]: 294.42 bpm; Activity [22]: 308.42 bpm; Activity [23]: 71.43 mmHg; Activity [24]: 51.3 min; Activity [25]: 315.15 bpm; Activity [26]: 23.2 min; Activity [27]: 195.43 mmHg; Time [28]: 313.5 s; Activity [29]: 23.8 ms; Activity [30]: 52.7 min; Activity [31]: 175.31 mmHg
O=C1/C(=C\c2ccccc2)S/C(=N\c2ccccc2)N1CC(O)CN1CCCCC1 (stereo not drawn)	51.7	886.9	73.3	145.87	71.8	51.9	94.65	72.76	268.74	166.84	134.16	22.8	297.54	64.69	20.2	22.6	82.63	52.2	72.9	72.7	Activity [21]: 274.15 bpm; Activity [22]: 303.32 bpm; Activity [23]: 76.12 mmHg; Activity [24]: 50.6 min; Activity [25]: 308.43 bpm; Activity [26]: 21.5 min; Activity [27]: 194.76 mmHg; Time [28]: 279.3 s; Activity [29]: 21.9 ms; Activity [30]: 51.5 min; Activity [31]: 165.33 mmHg
